# Data taken from a melting point compilation (Tetko et al.; mined from patent text by program, amines drawn as free bases though some values may be those of a salt).
row,melting point,SMILES
1,227 °C,O=C(O)COc1ccc(-c2ccc(=O)[nH]n2)cc1Cl
2,186 to 187 °C,CC(=O)Cc1ccc(NC(=O)/C=C/c2cnn(C)c2-c2ccc(F)cc2)cc1
3,202 °C,CCOCCN(CCOCC)C(=O)c1n[nH]c2c(=O)[nH]c3cc(Cl)ccc3c(=O)c12
4,232 to 234 °C,COc1cc(Nc2c(C#N)cnc3ccc(Br)cc23)c(Cl)cc1Cl
5,141 to 143 °C,CCNC(=O)c1cc(N(C)C)ccc1[Si](C)(C)C
6,195 to 196 °C,CCOC(=O)c1ncn2c1cnc1ccccc12
7,67 to 76 °C,COc1ccc(/C=C/C(=O)N2CCN(C(=O)c3cc(C(F)(F)F)cc(C(F)(F)F)c3)[C@H](Cc3ccc(C)c(C)c3)C2)cc1
8,110 to 129 °C,O=C(Nc1ccc(Cl)cc1C(=NO)c1ccccc1)C(F)Cl (configuration not stated)
9,207 to 209 °C,C1=NCC2=C3C(=C1)CCCC3CCC2 (configuration not stated)
10,44 to 46 °C,CCN(CC)CCCOc1ccc(C(O)(CC)c2cccc(C(F)(F)F)c2)cc1 (configuration not stated)
11,58 °C,CCCCCCC(O)CCCCCCCCCCC(=O)OC (configuration not stated)
12,140 °C,CCc1c([N+](=O)[O-])c(C(N)=O)nn1CCOC
13,211 to 212 °C,CNC1=NS(=O)N=C1NCCCNc1ncc(Br)cc1C (configuration not stated)
14,165 to 166 °C,O=C(c1ccc2nonc2c1)N1C2CCC1CC(F)(F)C2
15,80 to 81 °C,CC(C)n1nc(CC(=O)c2cccc(F)c2)ccc1=O
16,192 to 194 °C,Cn1c(=O)nc(-c2ccccc2F)c2cc(Cl)sc21
17,144 °C,COc1ccccc1CNc1ccc2cc(Nc3nc(C(F)(F)F)co3)ccc2n1
18,110 to 112 °C,Cc1ncc(CS)c2c1OC(c1ccccc1)OC2 (configuration not stated)
19,229 to 230 °C,Cc1c([N+](=O)[O-])oc2ccc(-c3ccc(CC(=O)O)cc3)cc12
20,48 °C,CC(=O)SCC(C(=O)O)C(C)c1ccc(O)cc1 (configuration not stated)
21,139 to 140 °C,C=C(C)c1ccccc1N1CCN(C(=O)Nc2cc(C)c(C)nc2OC)CC1
22,92 to 93 °C,COC(=O)c1ccc(C#CC(O)c2ccc3c(c2)C(C)(C)CCC3(C)C)cc1O (configuration not stated)
23,38 to 42 °C,O=C(CCCC1CCCCC1)C1=C(O)COC1=O
24,55 to 56 °C,COC(=O)c1cc(CBr)ccc1[N+](=O)[O-]
25,184 to 185 °C,COc1ccc(OC)c(S(=O)(=O)N2CCC(N3N=C(c4ccc(OC)c(OC)c4)CCC3=O)CC2)c1

row,melting point,SMILES
1,187 to 189 °C,CN(C)C1CCCN(C(=O)c2ccc(NC(=O)Cc3ccccc3Cl)cc2)c2ccccc21 (configuration not stated)
2,98 to 101 °C,CCCCOC(=O)Cn1cccc1-c1nc(-c2ccc(OC)cc2)c(-c2ccc(OC)cc2)s1
3,88 to 96 °C,CN1C2CCC1CN(c1ccc(C#Cc3ccc(NC(=O)c4ccccc4)cc3)nn1)C2
4,81 to 83 °C,C=CCOC(=O)c1ccc(NCCCCCCCCCCCCCCCC)cc1
5,58 to 60 °C,CCOC(=O)C1CCc2cc(OC)ccc2C1=O (configuration not stated)
6,124 to 125 °C,Clc1nc2ncsc2nc1Cl
7,256 to 257 °C,CSc1ccc2[nH]c(C(=O)O)cc(=O)c2c1
8,161 to 162 °C,CC(=O)OCC1OC(c2ccc(Cl)c(Cc3ccc(-c4ccc(F)nc4)s3)c2)C(OC(C)=O)C(OC(C)=O)C1OC(C)=O (configuration not stated)
9,193 to 195 °C,CS(=O)(=O)c1ccc(-n2nc(C(F)F)cc2-c2nc3cccc(F)c3s2)cc1
10,150 to 152 °C,C=Cn1cc(C(N)=O)c([N+](=O)[O-])n1
11,145 °C,CCc1ccc(C)c(S(=O)(=O)NC(=O)n2nc(C)n(C)c2=O)c1
12,207 to 208 °C,Cc1cc(-c2c(-c3ccc(S(C)(=O)=O)cc3)cnn(-c3ccc(F)c(Cl)c3)c2=O)ccc1F
13,279 to 280 °C,Clc1ccc(Nc2nc(-c3nccc4ccccc34)nc3ccccc23)cc1
14,315 to 325 °C,NC(=O)c1cc2[nH]c3ccccc3c(=O)n2n1
15,80 °C,Cc1cc(C)c(C(=O)C(F)(F)F)[nH]1
16,62 °C,Cc1ccc(-c2[nH]nc(COCCCO[N+](=O)[O-])c2-c2ccc(S(N)(=O)=O)cc2)cc1
17,178 to 180 °C,CCn1c(C)nc2nc(-c3ccccc3)c(-c3ccccc3)nc21
18,125 to 127 °C,O=S(=O)(Cc1noc(-c2ccccc2)n1)c1ccc(CCNCC(O)c2ccc(OC(F)(F)F)cc2)cc1 (configuration not stated)
19,115 to 116 °C,COc1cc2c(cc1O)C(=O)CCCC2
20,102 °C,CCOC(=O)[C@H](O)[C@@H](NC(=O)OC(C)(C)C)c1ccccc1
21,134 to 137 °C,CC(C)c1cccc(C(C)C)c1NC(=O)C(NCc1ccccc1)c1ccccc1 (configuration not stated)
22,119 to 120 °C,CCCNC(=O)N1CC(Oc2ccc(C(F)(F)F)cc2)C1
23,67 to 68 °C,CC(C)Sc1ccc(N)c(C#N)c1
24,72 to 75 °C,C#CCON=C(C(=O)OC)c1nsc(NC(=O)OC(C)(C)C)n1
25,168 °C,c1ccc(Nc2ccc(-c3ccc(N(c4ccccc4)c4ccccc4)cc3)cc2)cc1

row,melting point,SMILES
1,115 to 116 °C,CCCO/N=C(\C(=O)OC)c1csc(N)n1
2,104 to 108 °C,COc1cccc2c1cc(C)n2Cc1ccc(F)cc1
3,153 °C,O=CNCCN1CCC(Nc2nc3ccccc3n2Cc2ccc(F)cc2)CC1
4,164 to 166 °C,CC(=O)c1ccc(OCCOc2ccc3ccccc3c2)c(Cl)c1
5,175 to 176 °C,COCCOc1cc(NC(=O)OC(C)(C)C)c(NC(=O)CC(=O)c2cccc(C#N)c2)cc1C#Cc1ccccc1
6,184 °C,CC(Cc1nc(-c2ccccc2)cc2ccccc12)C(=O)O (configuration not stated)
7,180 to 182 °C,O=C(O)C1CCc2c(c3ccccc3n2C(=O)c2ccc(F)cc2)C1 (configuration not stated)
8,116 °C,C=C1CSC(=C(C#N)n2ccnc2)S1
9,182 to 184 °C,C[C@@H](n1ncn(-c2ccc(-n3cncn3)cc2)c1=O)[C@](O)(Cn1cncn1)c1ccc(F)cc1F
10,67 to 68 °C,CC(C)(CCl)C(=O)COc1ccc(-c2ccc(Cl)cc2)cc1
11,109 to 110 °C,CC(C)Cc1nc(-c2ccccc2)cnc1NN
12,180 to 182 °C,O=c1[nH][nH]c(=O)n1-c1c(F)c(F)c(F)c(F)c1F
13,83 to 95 °C,C=C(C)COc1cc(C)c2c(c1C)CC(C)(C)N2C=O
14,52 to 53 °C,C=CCOCCc1ccc(OCC(O)CNC(C)C)cc1 (configuration not stated)
15,202 to 204 °C,O=C(O)CC1c2cc(C(F)(F)F)ccc2C(=O)N1CC(F)(F)F (racemic)
16,> 305 °C,NC1=C(C(=O)c2ccc(Cl)cc2Cl)OC2N=C(O)C=CC12 (configuration not stated)
17,185 to 186 °C,CC1=CC(O)C(OC(=O)c2ccc(N)cc2N)C(C)(C)CC1=O (configuration not stated)
18,225 to 228 °C,O=C1OC(=O)c2nc3ccccc3cc21
19,90 to 94.8 °C,CCOC(=O)CCCOc1cccc2cc(/C(C)=C/C(=O)N3CCOCC3)oc12
20,156 °C,Cn1c(C2CC2)nc2c(O)c(C(=O)[C@H](O)[C@@H](O)c3ccccc3)ccc21
21,119 °C,C=CCn1c(C)nc2c3c(ccc21)[C@@H](OCCF)[C@H](OC(=O)C(C)(C)C)[C@@H](c1ccccc1)O3
22,134 to 137 °C,CCCc1ccnc2c(=O)[nH]c(-c3ccccc3OCC)nc12
23,88 °C,Cc1cc(CNC(=O)c2cc(-c3ccc(C(C)(C)C)cc3)n(Cc3ccccc3)n2)ccc1OC(C)(C)C(=O)O
24,178 to 180 °C,CC(=O)NC1CC(n2cc(C=CBr)c(=O)[nH]c2=O)OC1CBr (configuration not stated)
25,75 to 78 °C,Cc1cc(C(=O)NC(C)CN(C)CC(C)NC(=O)c2cc(C)cc3nc4ccccc4nc23)c2nc3ccccc3nc2c1 (configuration not stated)

row,melting point,SMILES
1,47 to 48 °C,Cc1noc(NS(=O)(=O)c2ccc(NCc3ccccc3)cc2)c1C
2,244 to 246 °C,Cc1cc(O)ccc1N1CCc2c1c1cccc(C)c1[nH]c2=O
3,110 to 113 °C,COc1cc(-c2ncsc2-c2ccc(C(F)(F)F)cc2)cc(OC)c1OC
4,286 °C,COC(=O)c1cc(O)c2nc(C)n(C)c2c1
5,186 to 187 °C,CNc1nc(-c2ccccc2)c(-c2nc3ccccc3c(=O)n2-c2cccc(C)c2)s1
6,79 °C,Cc1ccc(S(=O)(=O)N2[C@H](CCCCC#N)CC[C@@H]2c2ccc(F)cc2)cc1 (racemic)
7,239 to 240 °C,Cc1ccc(NC(=O)c2cccc(N(C)C)c2)cc1NC(=O)c1cccc(NS(C)(=O)=O)c1
8,171 to 172 °C,CSc1ncnc(SC)c1NC(=O)CN1CCN(CCSc2nc3ccccc3o2)CC1
9,248 to 253 °C,C=CC(=O)Nc1ccc2[nH]nnc2c1
10,> 250 °C,CC(=O)Nc1cccc(-c2nc3ncccc3[nH]2)c1
11,39 to 41 °C,CCCCOc1cc(CCC(=O)O)ccc1-c1cccc(CN(C)C(=O)c2ccc(OC)cc2)c1
12,243 to 244 °C,CCc1nc2c(N)nc3ccccc3c2n1CCC1(O)CCOCC1
13,174 to 176 °C,COc1ccc(C(=C(c2ccc(C#N)cc2)n2ccnc2)c2ccc(OC)cc2)cc1
14,224 to 225 °C,Cc1nc(-c2ccc(O)c(C)c2O)no1
15,137 to 138 °C,COc1ccc(C2(C#Cc3nccn3C)CCC(=O)CC2)cc1OC1CCCC1
16,109 to 111 °C,COCOc1cccc(CN(C)c2cnc(-c3ccccc3)c(-c3ccccc3)n2)c1
17,218 to 220 °C,NS(=O)(=O)c1ccc(-c2cnn(Cc3ccc(F)c(F)c3F)c(=O)c2-c2ccc(F)cc2)cc1
18,275 °C,CCOC(=O)c1cnc2[nH]ncc2c1O
19,142 °C,N#CN=C(Nc1ccccc1Br)Nc1ccc(C#N)c(Br)c1O
20,210 °C,Cc1cc(C)c2c(c1)cc(C(=O)O)n2CC(=O)OC(C)(C)C
21,239 to 243 °C,CCCc1c(OCc2cccn3c(=O)c(CC(=O)O)cnc23)ccc(C(C)=O)c1O
22,140 to 141 °C,CCOC(=O)c1c(NC2CCCCC2)c(C#N)c(=O)n2ccccc12
23,81 to 89 °C,O=C1c2cc(Br)sc2SCCN1CCCCCl
24,153 to 156 °C,CC1(C)C(c2cccs2)=NN=C1c1cccs1

row,SMILES,melting point
1,O=C(CI)CCc1ccccc1,44 to 45 °C
2,Cc1cc(OC(=O)N(C)SSC(C)(C)C)cc(C)c1N=Cc1ccccc1O,121 to 124 °C
3,O=C(NC1N=C(c2ccccc2F)c2ccccc2NC1=O)c1ccc(Cl)cc1 (racemic),258 to 259 °C
